PMC5156323 (Journal of natural products, 2015)

Experiments:
Format in all cases: cell-based
[1] = system: proinflammatory cytokine production in induced THP-1 cells; experiment: induced THP-1; details: at 10 μM
[2] = system: IL-33 production in induced THP-1 cells; experiment: induced THP-1; details: at 10 μM; THP-1 cells induced with LPS and TiO2
leukemia cell line SR = experiment: NCI-DTP 60, SR; details: read-out: IC50 (cytotoxic)
[3] = system: interleukin 6 (IL-6) production in induced THP-1 cells; experiment: induced THP-1
[4] = system: IL-1β production in induced THP-1 cells; experiment: induced THP-1; details: abstract, no concentration given
[5] = system: melanoma cell line LOX IMVI; experiment: NCI-DTP 60, LOX IMVI; details: Homo sapiens, read-out: IC50 (cytotoxic)
[6] = system: tumor necrosis factor-alpha (TNF-α) production in induced THP-1 cells; experiment: induced THP-1; details: abstract, no concentration given

| SMILES | effect on proinflammatory cytokine production [1] | inhibition of production of IL-33 [2] | IC50 (leukemia cell line SR) [µM] | IL-6 production in the induced inflammasome assay ([3]; abstract, no concentration given) | inhibition of production of interleukin 6 (IL-6) ([3]; at 10 μM, THP-1 cells induced with LPS and TiO2) | IL-1β production in the induced inflammasome assay [4] | IC50 [5] [µM] | TNFα production in the induced inflammasome assay [6] |
| --- | --- | --- | --- | --- | --- | --- | --- | --- |
| CCCCCCCCCC(=O)[C@@H]1C(=O)O[C@@]2(C)C(=O)C=C3C=C(C[C@H](C)O)OC=C3[C@@H]12 [Compound 1, berkchaetoazaphilone A] | no effect |  |  |  |  |  |  |  |
| CCCCCCCCCC(=O)[C@@]12O[C@@]13C1=COC(C[C@H](C)O)=CC1=CC(=O)[C@]3(C)OC2=O [Compound 2, berkchaetoazaphilone B] |  | completely inhibited | 10 | inhibited | completely inhibited | inhibited | 10 | inhibited |
